Measurements as given in US9186322B2, “Platinum aggregates and process for producing the same” (Insmed Incorporated, priority 2002, dated 2015).

Test: TEM analysis of particles
Type: physicochemical
Settings: not complexed with a lipid
Description: The white to portion containing mostly light fraction was removed and the yellowish brown fraction on the bottom was used for TEM analysis. A small amount of sample (less than 10 microliters) was placed on the carbon coated grid. The grid was placed on the top of a piece of filter paper and spun an Eppendorf centrifuge for 1 minute at 500 RPM to remove excess water. Samples were air-dried for at least one hour before analysis. If centrifugation was done at too low a speed, water was not removed sufficiently enough, and the sample remained too thick, even after drying, tending to boil when exposed to high vacuum inside the TEM microscope. Centrifugation conditions were adjusted to be gentle enough to avoid damage to the grid or loss of the sample.
The cisplatin solution was briefly sonicated in a bath of room temperature water. At the first signs of cisplatin precipitation and cloudiness, a small volume was taken with a pipette and immediately placed on a carbon coated grid as described in the preceding paragraph.
TEM images were obtained on a Zeiss 910 Transmission Electron Microscope at the Princeton Imaging and Analysis Center, Princeton University, Princeton, N.J. An accelerating high voltage of 100 kV was used, and pictures were captured on a charged couple device (CCD) camera at magnifications of 2000 to 25,000×. […]

N.N.[Cl][Pt][Cl] [cisplatin, cis-diamine-dichloroplatinum (II)]
crystal length: 10-20 microns | crystal width: approximately 2 microns
